Source: paper PMC3575795 (Nucleic Acids Research, 2012)

Molecular target: T1, MfpB (Mycobacterium fluoroquinolone resistance protein B) (Mycolicibacterium smegmatis, UniProt A0QSX9)
T1 sequence (A0QSX9 1-193): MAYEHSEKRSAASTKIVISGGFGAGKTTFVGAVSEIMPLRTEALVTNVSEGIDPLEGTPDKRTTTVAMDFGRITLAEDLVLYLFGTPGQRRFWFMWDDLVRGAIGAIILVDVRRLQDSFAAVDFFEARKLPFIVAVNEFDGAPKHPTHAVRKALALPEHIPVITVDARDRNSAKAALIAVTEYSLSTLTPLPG
Experiment: isothermal titration calorimetry
Assay type: binding

Row | Structure (SMILES) | Kd
1 | Nc1nc2c(ncn2[C@@H]2O[C@H](COP(=O)(O)OP(=O)(O)OP(O)(O)=S)[C@@H](O)[C@H]2O)c(=O)[nH]1 [GTP-γ-S] | 11.8 ± 3.2 nM
2 | Nc1nc2c(ncn2[C@@H]2O[C@H](COP(=O)(O)OP(=O)(O)O)[C@@H](O)[C@H]2O)c(=O)[nH]1 [GDP] | 10.5 ± 2.9 nM
